# Legend:
# human OX1 receptor = target: T1, human OX1 receptor (Homo sapiens, UniProt O43613); test: Inhibition of orexin A-induced increase in intracellular calcium concentration (FLIPR), OX1 receptor expressing CHO-K1 cells; assay type: cell-based; settings: CHO-K1 cells stably expressing human OX1 receptor; 0.3 nM orexin A; compound added 5 minutes before; fluo-3 AM; read-out: 50% Inhibition concentration, OX1 receptor
# T1 construct: expressed in transfected cells
# T1 sequence (O43613 1-425): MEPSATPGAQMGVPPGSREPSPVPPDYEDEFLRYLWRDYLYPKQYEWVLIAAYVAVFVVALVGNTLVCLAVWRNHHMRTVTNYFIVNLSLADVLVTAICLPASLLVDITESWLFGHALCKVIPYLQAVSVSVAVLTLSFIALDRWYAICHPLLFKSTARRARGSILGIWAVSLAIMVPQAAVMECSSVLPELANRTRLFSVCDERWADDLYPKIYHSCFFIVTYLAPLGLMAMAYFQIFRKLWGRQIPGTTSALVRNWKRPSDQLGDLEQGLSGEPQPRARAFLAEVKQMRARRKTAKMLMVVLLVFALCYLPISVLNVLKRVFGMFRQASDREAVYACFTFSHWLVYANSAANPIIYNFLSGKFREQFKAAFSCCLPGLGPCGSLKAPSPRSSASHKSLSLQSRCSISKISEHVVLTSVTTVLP
# Excerpt: (§1) A cDNA sequence encoding human orexin OX1 receptor or OX2 receptor (see GenBank, accession number AF 041243 and AF 041245) was cloned into the EcoRV-EcoRI site of a mamal expressed plasmid vector pIRESIneo (made by Clontech Laboratories, Inc.) and the PmlI-XbaI site of a mamal expressed plasmid vector pEF/myc/cyto (made by Invitrogen Corp.). The resulting vectors were respectively transfected into Chinese hamster's ovarian cells CHO-K1 (Americam Type Culture Collection, ATCC number CCL-61). Then, cells having resistance to 2 mg/ml of Geneticin (G418, made by Life Technologies, Inc.) were selected to obtain a cell line stably expressing a human OX1 receptor and a cell line stably expressing a human OX2 receptor. The OX1 receptor or OX2 receptor stably expressing cells were made to take up fluo-3, AM (made by Molecualr Probes Inc.), a fluorescent indicator of calcium concentration, and then 0.3 nM of orexin A was added to a suspension of the cells in an assay buffer (Hank's […] salt solution adjusted to pH 7.4 and containing 20 mM HEPES, 0.5% bovine serum albumin and 2.5 mM probenecid), and the change of the intracellular calcium concentration was measured with time lapse using FLIPR (Fluorometric Imaging Plate Reader, made by Molecular Devices Corp.). The effect of a test compound influencing the increase in the intracellular calcium concentration was assayed by adding the test compound in various concentrations to the assay solutions, 5 minutes before the addition of orexin A, and the 50% inhibition concentration (IC50 value) of the test compound against the increase in intracellular calcium concentration caused by the addition of 0.3 nM orexin A was determined (Table 1).
# human OX2 receptor = target: T2, human OX2 receptor (Homo sapiens, UniProt O43614); test: Inhibition of orexin A-induced increase in intracellular calcium concentration (FLIPR), OX2 receptor expressing CHO-K1 cells; assay type: cell-based; settings: CHO-K1 cells stably expressing human OX2 receptor; 0.3 nM orexin A; compound added 5 minutes before; fluo-3 AM; read-out: 50% Inhibition concentration, OX2 receptor
# T2 construct: expressed in transfected cells
# T2 sequence (O43614 1-444): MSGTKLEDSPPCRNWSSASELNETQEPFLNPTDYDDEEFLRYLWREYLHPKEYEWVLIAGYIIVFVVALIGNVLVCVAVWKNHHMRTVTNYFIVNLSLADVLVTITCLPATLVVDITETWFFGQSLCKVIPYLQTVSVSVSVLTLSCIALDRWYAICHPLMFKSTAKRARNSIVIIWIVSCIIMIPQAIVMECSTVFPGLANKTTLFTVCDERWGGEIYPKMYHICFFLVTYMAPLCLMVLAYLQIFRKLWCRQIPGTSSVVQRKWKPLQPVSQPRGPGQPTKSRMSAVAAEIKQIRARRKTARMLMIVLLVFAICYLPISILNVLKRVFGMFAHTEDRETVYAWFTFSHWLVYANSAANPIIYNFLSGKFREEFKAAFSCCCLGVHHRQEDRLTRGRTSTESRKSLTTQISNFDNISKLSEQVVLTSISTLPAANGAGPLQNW
# Excerpt: as §1
IC50 (human OX1 receptor),IC50 (human OX2 receptor),Compound
24000 nM,110 nM,"COc1cc2c(cc1OC)CN(C(=O)[C@@H](NCc1ccncc1)C(C)(C)C)CC2 [Example 6, (2S)-2-(N-4-pyridylmethyl)amino-1-(6,7-dimethoxy-1,2,3,4-tetrahydroisoquinolin-2yl)-3,3-dimethylbutan-1-one]"
17000 nM,49 nM,"COc1cc2c(cc1OC)CN(C(=O)[C@@H](NCc1nccs1)C(C)(C)C)CC2 [Example 8, (2S)-1-(6,7-dimethoxy-1,2,3,4-tetrahydroisoquinolin-2-yl)-3,3-dimethyl-2-((2-thiazolylmethyl)amino)butan-1-one]"
4400 nM,140 nM,"COc1cc2c(cc1OC)CN(C(=O)[C@@H](NCc1cccc(Br)c1)C(C)(C)C)CC2 [Example 23, (2S)-2-(3-bromobenzylamino)-1-(6,7-dimethoxy-1,2,3,4-tetrahydroisoquinolin-2-yl)-3,3-dimethylbutan-1-one]"

Compound,IC50 (human OX1 receptor),IC50 (human OX2 receptor)
"COc1cc2c(cc1OC)CN(C(=O)C(Cc1ccccc1)NC(=O)c1cc(Cl)cc(Cl)c1)CC2 (centres unmarked) [Example 4, N-[2-(6,7-dimethoxy-1,2,3,4-tetrahydroisoquinolin-2-yl)-2-oxo-1-benzylethyl](3,5-dichlorophenyl)carboxyamide]",5300 nM,31 nM

# From US6838465B2, “N-acyltetrahydroisoquinoline derivatives” (Banyu Pharmaceutical Co., Ltd., priority 2000, dated 2005)
